Results taken from patent US11878016B2, “Methods and products for treating subjects with autism spectrum disorders” (NEURIM PHARMACEUTICALS (1991) LTD., priority 2021, dated 2024).

Tested on: C57BL/6J mice exposed in utero to VPA (and SAL control offspring)
Test: Three chamber test in the valproic acid (VPA) model of autism
Type: in vivo
Excerpt: Furthermore, rodents prenatally exposed to this drug display behavioral phenotypes characteristics of the human autism condition. This model might better represent the many cases of idiopathic autism which are of environmental/epigenetic origins than do transgenic models carrying mutations in single autism-associated genes. The VPA model is an environmentally triggered model with strong construct and clinical validity. The VPA-induced rodent model is an art-recognized and well-established and widely utilized animal model to test putative efficacy of pharmacological agents on behavioral and social elements in the autistic spectrum for humans.
C57BL/6J mice were obtained at 7-8 weeks of age and were mated, with pregnancy confirmed by the presence of a vaginal plug on embryonic day 0 (E0). On E12.5, pregnant females received a single intraperitoneal injection of sodium salt of valproic acid (VPA, 500 mg/kg) dissolved in saline (SAL). Control females received an equal volume of SAL only. Day of birth was recorded as PO (postnatal day zero). The offspring were weaned on P21 (postnatal day 21) and the male offspring were housed in groups of 4-5. Experiments were carried out on male offspring. The mice were housed in a temperature- and humidity-controlled environment with ad libitum access to food and water. Animals were maintained on a 12 hr light/dark schedule, with lights on at 8 A.M.
The male offspring of VPA-treated mice were divided into 4 groups (n=8-9 per group): VPA-Vehicle)+50 μg of ZnSO4, VPA-ticagrelor (0.3 mg/kg)+[…] of ZnSO4, VPA-ticagrelor (10 mg/kg)+50 μg of ZnSO4 and VPA-ticagrelor (30 mg/kg)+50 μg of ZnSO4. The male offspring of SAL-treated mice were divided into 2 groups (n=10 per group): SAL-Vehicle and SAL-ticagrelor (30 mg/kg)+50 μg of ZnSO4. From the sixth week to eight week of age, the mice received three once-weekly injections of either saline (50 μl/g ip) or ticagrelor (i.p.). Twenty-four hours after the last injection, the three chamber test was performed.
The three-chamber test assesses cognition in the form of general sociability and interest in social novelty in a rodent model of CNS disorders. This test measures the sociability, the propensity to spend time with another mouse, as compared to time spent alone in an identical but empty chamber.
The apparatus was an acrylic box (length: 62 cm, width: 41 cm, height: 30.5 cm) divided into three chambers. A 5 cm×5 cm opening was made on the partitions so that mice could freely explore the three chambers. Mouse was first placed into the centre chamber of the apparatus and allowed 5 min for habituation. Following the completion of the acclimatization period the test mouse was removed to a holding cage, and the bedding material was redistributed. Then a novel mouse enclosed in a tiny cage was placed in one lateral chamber (social area) and an empty tiny cage was placed in the other lateral chamber as a novel object (non-social area). Mouse was first placed into the centre chamber and allowed to freely explore the chambers for 10 min and the time spent in each of the three areas (social, centre, and non-social areas) was recorded.
Statistical Analyses: Statistical analyses for the data were performed using one-way or two-way RM ANOVA (SigmaStat 3.1). Post-hoc comparisons were performed with the Tukey HSD method. If data were not normally distributed, Kruskal-Wallis one way ANOVA on ranks followed by the Dunn's method was used. All data were represented as mean±SEM. Significant level was set at p<0.05.

[1] = SAL (control) offspring, ticagrelor 30 mg/kg i.p. + 50 μg ZnSO4, vs SAL-Vehicle, p>0.05

## CCCSc1nc(N[C@@H]2C[C@H]2c2ccc(F)c(F)c2)c2nnn([C@@H]3C[C@H](OCCO)[C@@H](O)[C@H]3O)c2n1 [ticagrelor, (1S,2S,3R,5S)-3-[7-[[(1R,2S)-2-(3,4-difluorophenyl)cyclopropyl]amino]-5-(propylthio)-3H-1,2,3-triazolo[4,5-d]pyrimidin-3-yl]-5-(2-hydroxyethoxy)-1,2-cyclopentanediol]
[1]
  time spent in non-social area: no significant difference
  time spent in social area: no significant difference
VPA offspring, ticagrelor 10 mg/kg i.p. + 50 μg ZnSO4, three once-weekly injections, test 24 h after the last, vs VPA-Vehicle, p<0.01
  time spent in social area: significant increase
VPA offspring, ticagrelor 10 mg/kg i.p. + 50 μg ZnSO4, vs VPA-Vehicle, p<0.01
  time spent in non-social area: significant decrease
VPA offspring, ticagrelor 30 mg/kg i.p. + 50 μg ZnSO4, three once-weekly injections, test 24 h after the last, vs VPA-Vehicle, p<0.001
  time spent in social area: significant increase
VPA offspring, ticagrelor 30 mg/kg i.p. + 50 μg ZnSO4, vs VPA-Vehicle, p<0.01
  time spent in non-social area: significant decrease
VPA offspring, ticagrelor 30 mg/kg i.p. + 50 μg ZnSO4, vs VPA-Vehicle, p<0.05
  time spent in centre area: significant decrease
Three once-weekly administrations of ticagrelor and zinc salt, C57BL/6J mice exposed in utero to VPA
  deficit in sociability: attenuated the deficit in sociability
